The term melting point denotes the temperature of the solid-liquid transition.

Compound `NS(=O)(=O)c1ccc(NC(=O)Cc2ccc(Cl)c(Cc3cc(Cl)ccc3Cl)c2)c(Cl)c1` [Compound I-209, 2-[4-Chloro-3-(2,5-dichloro-benzyl)-phenyl]-N-(2-chloro-4-sulfamoyl-phenyl)-acetamide] returned a melting point of 219.3 to 221.5 °C.

In the case of `COc1ccc(CC(=O)Nc2ccccc2)cc1Oc1cc(Cl)cc(C#N)c1` [Compound I-210, 2-[3-(3-Chloro-5-cyano-phenoxy)-4-methoxy-phenyl]-N-phenyl-acetamide], the melting point lay in the range of 171.3 to 171.6 °C.

The compound `N#Cc1cc(C#N)cc(Oc2cc(CC(=O)Nc3ccccc3)ccc2Cl)c1` [Compound I-211, 2-[4-Chloro-3-(3,5-dicyano-phenoxy)-phenyl]-N-phenyl-acetamide] yielded a melting point of 199 to 201.9 °C.

In the case of `Cc1ccncc1NC(=O)Cc1ccc(C)c(Oc2cc(Cl)cc(C#N)c2)c1` [Compound I-224, 2-[3-(3-Chloro-5-cyano-phenoxy)-4-methyl-phenyl]-N-(4-methyl-pyridin-3-yl)-acetamide], the melting point lay in the range of 158.6 to 159.1 °C.

As to `Cc1ccc(CC(=O)Nc2ncccc2C)cc1Oc1cc(Cl)cc(C#N)c1` [Compound I-225, 2-[3-(3-Chloro-5-cyano-phenoxy)-4-methyl-phenyl]-N-(3-methyl-pyridin-2-yl)-acetamide], the melting point lay in the range of 137.9 to 138.8 °C.

Compound `Cc1cc(NC(=O)Cc2ccc(C)c(Oc3cc(Cl)cc(C#N)c3)c2)n(C)n1` [Compound I-226, 2-[3-(3-Chloro-5-cyano-phenoxy)-4-methyl-phenyl]-N-(2,5-dimethyl-2H-pyrazol-3-yl)-acetamide] had a melting point of 155.6 to 159 °C.

With `Cc1ccc(CC(=O)Nc2ccnn2C)cc1Oc1cc(Cl)cc(C#N)c1` [Compound I-227, 2-[3-(3-Chloro-5-cyano-phenoxy)-4-methyl-phenyl]-N-(2-methyl-2H-pyrazol-3-yl)-acetamide], the melting point fell in the range of 129.5 to 132.8 °C.

As to `CC(=O)Nc1cc(C)c(NC(=O)Cc2ccc(C)c(Oc3cc(Cl)cc(C#N)c3)c2)cn1` [Compound I-228, N-(6-Acetylamino-4-methyl-pyridin-3-yl)-2-[3-(3-chloro-5-cyano-phenoxy)-4-methyl-phenyl]-acetamide], the melting point was 222.5 to 224 °C.

Consider `COc1ccc(NC(=O)Cc2ccc(C)c(Oc3cc(Cl)cc(C#N)c3)c2)c(C)n1` [Compound I-229, 2-[3-(3-Chloro-5-cyano-phenoxy)-4-methyl-phenyl]-N-(6-methoxy-2-methyl-pyridin-3-yl)-acetamide], for which the melting point was in the range of 168.3 to 170.4 °C.

Turning to `CSc1nc(NC(=O)Cc2ccc(C)c(Oc3cc(Cl)cc(C#N)c3)c2)n(C)n1` [Compound I-230, 2-[3-(3-Chloro-5-cyano-phenoxy)-4-methyl-phenyl]-N-(2-methyl-5-methylsulfanyl-2H-[1,2,4]triazol-3-yl)-acetamide], the melting point is 173 to 174 °C.

In the case of `Cc1cc(CC(=O)Nc2ccccc2Cl)cc(C(=O)c2cc(Cl)cc(Cl)c2)c1` [Compound I-231, N-(2-Chloro-phenyl)-2-[3-(3,5-dichloro-benzoyl)-5-methyl-phenyl]-acetamide], the melting point lay in the range of 142 to 146.2 °C.

`Cc1cc(OCC(=O)O)ccc1NC(=O)Cc1ccc(C)c(Oc2cc(Cl)cc(C#N)c2)c1` [Compound I-234, (4-{2-[3-(3-Chloro-5-cyano-phenoxy)-4-methyl-phenyl]-acetylamino}-3-methyl-phenoxy)-acetic acid] came in with a melting point of 174.8 to 176.4 °C.

On to `COC(=O)Cc1ccc(NC(=O)Cc2ccc(C)c(Oc3cc(Cl)cc(C#N)c3)c2)c(Cl)c1` [Compound I-235, (3-Chloro-4-{2-[3-(3-chloro-5-cyano-phenoxy)-4-methyl-phenyl]-acetylamino}-phenyl)-acetic acid methyl ester], for which the melting point lay within 116.9 to 118 °C.

As for `Cc1ccc(CC(=O)Nc2ccc(CC(=O)O)cc2Cl)cc1Oc1cc(Cl)cc(C#N)c1` [Compound I-236, (3-Chloro-4-{2-[3-(3-chloro-5-cyano-phenoxy)-4-methyl-phenyl]-acetylamino}-phenyl)-acetic acid], the melting point was 159.6 to 160 °C.

These data come from patent US8329755B2, “Methods for treating retroviral infections” (Roche Palo Alto LLC, priority 2004, dated 2012).
